Data on 1 molecule can be found in US20170209468A1, “POLY(BETA-AMINO ESTER) CONJUGATES FOR CARTILAGE AGENT DELIVERY AND METHODS” (University College Cardiff Consultants Limited, priority 2014, published 2017).

SMILES strings stand for the structures.

The test system of this data set is chondrocytes. Put plainly: Viability of chondrocytes after exposure (MTT and LDH assays). As to conditions: 15 μl of DEX 4 mg/ml solution per 1 ml well, up to 3 days. It is filed as cell-based, bovine. How it is done: The cartilage samples as described in Example 4 underwent a 1 hour predigestion stage with 0.4% w/v pronase (Sigma, UK), dissolved in 4-(2-hydroxyethyl)-1-piperazineethanesulfonic acid (HEPES)-buffered DMEM (Gibco, UK) supplemented with 50 U/50 mg/mL penicillin-streptomycin (Sigma Aldrich) and 2.5 mg/mL amphotericin B. Cartilages samples were placed in sterile eppendorfs containing the filter-sterilized enzyme solution by passage through a […] filter at a concentration of 1 ml solution for 5 cartilage extracts. The samples were incubated at 37° C. and the cartilage fragments were then washed twice with sterile PBS and digested with 1 ml each 6 cartilage sample of collagenase II (Sigma, UK) 0.1% w/v for 16 h at 37° C. Collagenase II was prepared in 4-(2-hydroxyethyl)-1-piperazineethanesulfonic acid (HEPES)-buffered DMEM (Gibco, UK) supplemented with 50 U/50 mg/mL penicillin-streptomycin (Sigma Aldrich and filter sterilised. […]
Chondrocytes viability was assessed through MTT and LDH assay kits (Sigma, UK) according to manufacturer's protocols. […]
(Formazan colour is commonly taken as a measure of viable cells.)

Take `C[C@@H]1C[C@H]2[C@@H]3CCC4=CC(=O)C=C[C@]4(C)[C@@]3(F)[C@@H](O)C[C@]2(C)[C@@]1(O)C(=O)COP(=O)(O)O` [DEX-P, dexamethasone phosphate]: the “chondrocytes viability (MTT and LDH)” value is listed as “same viability”.
